Data set [1] has as its system Plasmodium falciparum. The experiment in a line: Antiplasmodial activity against chloroquine-resistant Plasmodium falciparum FcM29 after 48 hrs by [3H]hypoxanthine uptake. Format: functional, organism-based.
Data set [2] in a line: Selectivity index, ratio of IC50 for african green monkey (Cercopithecus aethiops) Vero cells to IC50 for chloroquine-resistant Plasmodium falciparum FcM29. Format: toxicity, cell-based. The following applies: read-out: Ratio IC50.
Data set [3] in a line: Selectivity index, ratio of IC50 for african green monkey (Cercopithecus aethiops) Vero cells to IC50 for chloroquine-resistant Plasmodium falciparum W2. Format: toxicity, cell-based. The settings on record: read-out: Ratio IC50.
The test system of data set [4] is Plasmodium falciparum. Kind of data set: Antiplasmodial activity against chloroquine-resistant Plasmodium falciparum FcB1 after 48 hrs by [3H]hypoxanthine uptake. In kind it is functional, organism-based. The settings on record: FcB1/Columbia.
Data set [5] can be described thus: Selectivity index, ratio of IC50 for african green monkey (Cercopithecus aethiops) Vero cells to IC50 for chloroquine-sensitive Plasmodium falciparum F32. Format: toxicity, cell-based. The settings on record: read-out: Ratio IC50.
Another data set relates to Vero. The experiment in a line: Cytotoxicity against african green monkey Vero cells assessed as [3H]hypoxanthine incorporation after 48 hrs. Format: cell-based. The following applies: Chlorocebus sabaeus.
Data set [6] has as its system Plasmodium falciparum. The experiment in a line: Antiplasmodial activity against chloroquine-sensitive Plasmodium falciparum F32 after 48 hrs by [3H]hypoxanthine uptake. Format: functional, organism-based.
Data set [7] has as its system Plasmodium falciparum. The experiment in a line: Antiplasmodial activity against chloroquine-resistant Plasmodium falciparum W2 gametocytes after 48 hrs by microscopy. Format: functional, organism-based. The settings on record: W2, 48 h.
A short description of data set [8]: Selectivity index, ratio of IC50 for african green monkey (Cercopithecus aethiops) Vero cells to IC50 for chloroquine-resistant Plasmodium falciparum FcB1. In kind it is toxicity, cell-based. The following applies: read-out: Ratio IC50.
Data set [9] deals with Plasmodium falciparum. The experiment in a line: Antiplasmodial activity against chloroquine-resistant Plasmodium falciparum W2 after 48 hrs by [3H]hypoxanthine uptake. In kind it is functional, organism-based.

This is an account of results in ChEMBL document CHEMBL1155951 (Bioorg Med Chem Lett, 2008).

Each structure is given as a SMILES string.

The IC50 is the concentration that inhibits the measured activity by half. Take `COc1cc2cccnc2c2nc(C)c3ccoc3c12`: the IC50 in the data set with Plasmodium falciparum [1] was 0.48 µM; in the data set with Plasmodium falciparum [4], 0.93 µM; in the data set with Vero it was 62.2 µM; in the data set on Plasmodium falciparum [6], 0.86 µM; with Plasmodium falciparum [7] it was 3.75 µM; with Plasmodium falciparum [9], 0.93 µM. Also, the selectivity ratio in [2] was determined as 129; in data set [3], 66; in data set [5], 72; in [8], 39.
As to `COc1cc2cccnc2c2nc(C)c3cc[nH]c3c12`, the IC50 in the data set on Plasmodium falciparum [1] amounted to 1.28 µM; in the data set on Plasmodium falciparum [4], 0.22 µM; in the data set on Vero, 29.8 µM; in the data set with Plasmodium falciparum [6], 0.41 µM; in the data set with Plasmodium falciparum [7] it was 9.8 µM; with Plasmodium falciparum [9] it was 1.28 µM. For the same compound, the selectivity ratio in data set [2] turned out to be 23; in [3], 23; in [5], 72; in data set [8], 132.
On to `Cc1nc2c(ccc3cccnc32)c2[nH]ccc12`, for which the IC50 amounted to 9.36 µM in the data set with Plasmodium falciparum [1]; 1.14 µM in the data set on Plasmodium falciparum [4]; 61.6 µM in the data set on Vero; 1.31 µM with Plasmodium falciparum [6]; 10.6 µM in the data set on Plasmodium falciparum [7]; 4.17 µM in the data set with Plasmodium falciparum [9]. The selectivity ratio in [2] was 7; in data set [3], 15; in data set [5], 47; in data set [8] it was 54.
As for `Cc1nc2c(ccc3cccnc32)c2occc12`, the IC50 stood at 0.38 µM in the data set with Plasmodium falciparum [1]; 0.97 µM with Plasmodium falciparum [4]; 37.6 µM in the data set on Vero; 1.18 µM in the data set on Plasmodium falciparum [6]; 5.5 µM in the data set on Plasmodium falciparum [7]; 1.1 µM with Plasmodium falciparum [9]. Besides, the selectivity ratio in data set [2] is 99; in data set [3], 34; in data set [5], 32; in data set [8] it was 39.
As for `COc1cc2cccnc2c2nc(C)c(CCCl)c(Cl)c12`, the IC50 in the data set with Plasmodium falciparum [1] came to 5 µM; in the data set on Plasmodium falciparum [4] it was 4.84 µM; in the data set on Plasmodium falciparum [6], 7.71 µM; in the data set with Plasmodium falciparum [9], 6.56 µM.
Regarding `COc1cc(NC(C)CCCN)c2ncccc2c1` (stereo not given) [PRIMAQUINE], in the data set with Vero, the IC50 came out at 340 µM.
